Results on 89 molecules are retold here after a melting point compilation (Tetko et al.; mined from patent text by program, amines drawn as free bases though some values may be those of a salt).

Some results are limits rather than exact numbers.

The molecule `O=C1N(Cc2cc(=O)[nH]c(=O)[nH]2)c2ccccc2C12COc1cc3c(cc12)OCO3` (centres undefined) registered a melting point above 300 °C.

`CC(C)(C)OC(=O)C=C1CN=C(c2ccccc2F)c2cc(Cl)ccc2N1` returned a melting point of 158 to 160 °C.

For `COCCc1nc2c(N)nc3cc(Br)cnc3c2n1CC(C)(C)O`, the melting point was in the range of 210 to 211 °C.

`COc1ccc(C2=C(/C=C/C(=O)O)CCc3cc(OC)ccc32)cc1`: the melting point was 222 to 224 °C.

Turning to `CC(=O)c1ccc2[nH]c3ccc(C(C)=O)cc3c2c1`, the melting point came to 241 °C.

Consider `CCCc1nc2c(N)nc3cc(Br)ccc3c2n1NC(C)C`, for which the melting point was 226 to 228 °C.

`O=C(Nc1nc(-c2ccco2)c(-c2ccncc2)s1)c1cc[nH]c(=O)c1` displayed a melting point of 277 to 281 °C.

`COc1ccc(-c2cc(C)c(=O)[nH]n2)cc1` registered a melting point of 265 to 267 °C.

`COCc1cnc2c(NC(=O)c3c(Cl)cccc3Cl)cccc2c1OCc1cccnc1` displayed a melting point of 174 to 176 °C.

For the molecule `CCCNC(=S)Nc1ccnc(CCCCCN2C(=O)c3ccccc3C2=O)n1`, the melting point lay in the range of 146 to 149 °C.

`CCCCCC(C(=O)O)c1ccc(Cl)cc1Cl` (centres undefined) gave a melting point of 65 to 68 °C.

`Cc1cc(Cc2ccccc2)nc(Nc2ccc(-n3ccnc3CO)cc2)n1`: the melting point fell in the range of 95 to 98 °C.

With `O=C(NC(O)C(=O)O)c1c(F)cccc1F` (centres undefined), the melting point is 125 to 127 °C.

`Cc1oc(-c2ccccc2)nc1CCc1ccc(/C=C/C=C/C=O)cc1` displayed a melting point of 107 to 108 °C.

`OCC1CN(C(c2ccccc2)c2ccccc2)C1` gave a melting point of 114 to 116 °C.

As to `Cc1nc2cc(C(F)(F)F)ccc2n1N`, the melting point is 190 to 192 °C.

`CCOC(=O)c1cnc2c(c(-c3ccccc3)nn2C)c1N(C)S(=O)(=O)c1ccc(Oc2ccncc2)cc1`: the melting point was in the range of 128 to 131 °C.

Turning to `CN1CCC(c2n[nH]c3ccccc23)CC1`, the melting point is 168 to 170 °C.

The molecule `COc1ccc(C=CC(=O)c2c(OC)cc(OC)cc2OC(=O)c2ccco2)cc1` returned a melting point of 127 °C.

On to `O=S(=O)(Cc1ccccc1)On1nnc2ccc(Cl)cc21`, for which the melting point was 126 to 128 °C.

Consider `Cc1ccc2c(=O)c3c(oc2c1)CCC(C#N)C3` (centres undefined), for which the melting point was in the range of 176 to 178 °C.

`COC(=O)Cc1ccc(CNC(=O)C2Cc3ccccc3N2S(=O)(=O)c2ccc(-c3ccc(F)cc3Cl)cc2)cc1` (centres undefined) showed a melting point of 70 °C.

`O=C(O)c1ccc(CCCCc2ccccc2Oc2ccccc2)cc1` returned a melting point of 120 °C.

As to `CCCC(O)(CCC)c1ccc(Cl)c2nc3n(c12)CCCN3c1ccc(Cl)cc1Cl`, the melting point was 133 to 135 °C.

As for `O=C(NCC1CCCCC1)NCC1CCCCC1`, the melting point was in the range of 150 to 152 °C.

For `FC(F)(F)Oc1ccc2nc(COc3ccccc3)[nH]c2c1`, the melting point was 65 to 66 °C.

Molecule `CCOC(=O)c1cnc(C(=O)O)cn1` showed a melting point of 150 to 153 °C.

In the case of `O=C1CCCN1[C@@H]1c2cc(C(F)(F)F)ccc2OC(CF)(CF)[C@H]1O` (relative stereo), the melting point fell in the range of 186 to 187 °C.

`COc1ccc(NN=C(Sc2cccc(Cl)c2)C(C)=O)cc1` had a melting point of 132 to 134 °C.

In turn, `COC(=O)c1ccc(Cc2cn(C)c3ccc(C(=O)O)cc23)c(OC)c1` displayed a melting point of 249 to 251 °C.

`Cc1c(C)c2c(c(C)c1OC(=O)CCC(=O)O)C(c1ccc(C(C)C)cc1)C(C)(C)O2` (centres undefined) came in with a melting point of 141 to 142 °C.

Molecule `COc1ccc(/C=N/Nc2ccccc2C(=O)O)cc1OC1CCCC1` displayed a melting point of 174 to 176 °C.

With `Cc1cc(-c2ccncc2)n2ncc(C(=O)c3ccccc3)c2n1`, the melting point fell in the range of 209 to 210 °C.

The molecule `Cc1nnc2n1-c1ccc(Br)cc1C(c1ccccc1Cl)=CC2` showed a melting point of 250 to 252 °C.

In turn, `CCOc1nn(Cc2cccc(OCCn3ncc4ccccc4c3=O)c2)cc1CCC(=O)O` showed a melting point of 146 to 147 °C.

As to `Fc1ccc(-c2ncn(CCCOc3ccccc3)c2-c2ccncc2)cc1`, the melting point was in the range of 95 to 96 °C.

Consider `Cc1ccc2c(c1)C(c1ccccc1)CC(N1CCN(C3CC(c4ccccc4)c4cc(C)ccc4O3)CC1)O2` (centres undefined), for which the melting point was found to be 241 °C.

In turn, `COCC1=C(C(=O)OC)C(c2ccc(Br)cc2)C(C(=O)OC)=C(COC)N1` showed a melting point of 162 to 163 °C.

As to `CCC1=C([N+](=O)[O-])C(c2cccc(Cl)c2Cl)c2c[nH]nc2N1` (centres undefined), the melting point was determined as 250 °C.

Molecule `COC(=O)CN(c1cc(OCc2ccccc2)cc2ccc(OC)cc12)S(N)(=O)=O` gave a melting point of 137 to 139 °C.

`Cn1c(-c2nnc(N)s2)cnc1[N+](=O)[O-]` yielded a melting point of 263 to 265 °C.

Turning to `N#CCCS(=O)(=O)c1ccc(S(=O)(=O)Cl)cc1`, the melting point is 124 to 125 °C.

`Brc1ccc(NN=C(Cc2ccco2)c2ccccc2)nc1` returned a melting point of 105 to 107 °C.

As to `Cn1nc(-c2ncc(Cl)cc2F)c(Cl)c1OC(F)F`, the melting point was 95 to 96 °C.

Regarding `COc1cc(C(=O)NS(=O)(=O)c2ccccc2C)ccc1Cc1cn(C(=O)NC(c2ccccc2)c2ccccc2)c2ccc(NC(=O)OC3CCCC3)cc12`, the melting point fell in the range of 253 to 254 °C.

In the case of `CN1C(=O)N=C(NCc2ccccc2)C1=O`, the melting point lay within 152 to 154 °C.

The molecule `O=[N+]([O-])c1ccc(Oc2cc3ccccc3cc2Oc2ccc([N+](=O)[O-])c(O)c2)cc1O` yielded a melting point of 179 to 181 °C.

Regarding `O=C1CCC(C(=O)O)C1` (centres undefined), the melting point is 59 to 60.5 °C.

`COC(=O)C(C(=O)C(C)C)=C(N)c1ccc(F)cc1` had a melting point of 85.8 to 86.6 °C.

As for `COc1ccc(N2CCN(c3ncc(N)cn3)CC2)cc1`, the melting point was 157 °C.

As to `Cc1cccc2c1C(=O)C1(CCOC1=O)S2` (centres undefined), the melting point came to 106 °C.

Consider `COc1ccc2c(c1)C(C(=O)Nc1ccc(C(C)C)cc1)CCC2` (centres undefined), for which the melting point lay in the range of 168 to 169 °C.

Take `COc1ccc(CN2C(=O)C3(COc4cc5onc(C)c5cc43)c3ccccc32)cc1` (centres undefined): the melting point was 138 to 139 °C.

Take `Cn1cc(S(=O)(=O)Cl)c(=O)c2cc(F)c(Cl)cc21`: the melting point is above 300 °C.

As for `CCNC(=O)NS(=O)(=O)c1cc2c(cc1OC)OCC(NC(=O)c1cc(Cl)ccc1OC)C2` (centres undefined), the melting point was in the range of 233 to 234 °C.

In turn, `Cc1nc(C(C)(C)C)ccc1/C=C/C(=O)Nc1ccc2[nH]c(CO)cc2c1` came in with a melting point of 213 °C.

For `CC(=O)OC1CCC2(C)C(=CCC3C2CCC2(C=CCl)C(OC(C)=O)CCC32)C1` (centres undefined), the melting point lay within 155 to 156 °C.

`COc1ccc2c3c([nH]c2c1)CC(NC(C)=O)CC3` (centres undefined) had a melting point of 192 to 193 °C.

For `COc1ccc(C2=NN(CCc3ccccc3)C(=O)[C@H]3CCCC[C@@H]23)cc1OC` (relative stereo), the melting point was in the range of 99 to 100 °C.

Molecule `O=c1[nH]c2ccc(Cl)cc2c2nc(-c3ccc(O)cc3)nn12` displayed a melting point above 350 °C.

`N#Cc1cc(-c2nc3cncnc3s2)ccc1Oc1ccccc1F`: the melting point fell in the range of 195 to 196 °C.

Consider `CC(C)(C)C(=O)OC1CCCCC1=O` (centres undefined), for which the melting point fell in the range of 35 to 36 °C.

`O=C(O)c1cccc2cc(Oc3c(Cl)cc(NS(=O)(=O)c4ccc(Cl)cc4Cl)cc3Cl)cnc12`: the melting point lay within 263 to 266 °C.

The molecule `COc1cc(Cc2ccccc2)c(O)c2c1C(C)(C)CCC2(C)C` had a melting point of 80 °C.

Regarding `Cc1ccc(C(=C(C=CC=O)c2nnnn2C)c2ccc(C)cc2F)c(F)c1`, the melting point lay within 88 to 108 °C.

`Fc1ccc2[nH]c3c(c2c1)CN(CCCCc1ccncc1)CC3`: the melting point lay within 210 to 212 °C.

Molecule `CC(C)(S)C(N)P(C)(=O)O` (centres undefined) came in with a melting point of 221 °C.

With `O=C1NCc2cc(C(=O)CCCl)ccc2N1`, the melting point is above 270 °C.

In the case of `COC(=O)C1C(=O)NC(=O)C12C(=O)N1c3ccccc3Sc3cccc2c31` (centres undefined), the melting point was in the range of 221 to 224 °C.

In turn, `CC(c1ccc(OCC(=O)Nc2ccc(-c3ccc(Cl)cc3)cc2)cc1)N1CCCC1` (centres undefined) came in with a melting point of 156 to 158 °C.

As for `OCc1ccc(-c2ccc(-c3ccsc3)s2)s1`, the melting point fell in the range of 158 to 160 °C.

For the molecule `Cc1cc(C(=O)O)c(C)c2c1S(=O)(=O)CCC2(C)C`, the melting point was 209 °C.

Molecule `Cc1c(O)ccc2oc(-c3ccc(O)cc3)cc12` displayed a melting point of 221 to 222 °C.

The molecule `Cc1ccc2c(-c3ccc(F)cc3)nc(=O)n(C(C)C)c2c1` registered a melting point of 172 to 174 °C.

For the molecule `CCc1cccc2c3c([nH]c12)C(CC)(CC(=O)O)OCC3=O` (centres undefined), the melting point is 200 to 202 °C.

Molecule `CC=CC=CC(O)c1ccc(-c2nc(C)c3c(n2)sc2c(OCC)nc(N4CCNCC4)nc23)cc1` (centres undefined) gave a melting point of 149 to 150 °C.

`CCOC(=O)Cc1nn(CC2Nc3cc(C(F)(F)F)ccc3S2)c(=O)c2ccccc12` (centres undefined) returned a melting point of 134 °C.

Regarding `COC(=O)c1ccc(Oc2cccnc2)c(N)c1`, the melting point came to 101 °C.

For `COc1ccc(CC2CCC3NC(=O)C(CO)CC3C2)cc1` (centres undefined), the melting point was in the range of 193 to 200 °C.

Molecule `CN(C)C(=O)c1cncn1C` gave a melting point of 46 to 47 °C.

As to `CCOc1nn(Cc2ccc(OCn3nnc4ccccc43)cc2)cc1CCC(=O)O`, the melting point fell in the range of 136 to 137 °C.

Take `CCOC(=O)c1ncn2c1CN(C)C(=O)c1cc(C(F)(F)F)ccc1-2`: the melting point lay in the range of 179 to 180 °C.

Molecule `CCCOc1ccccc1-c1ccc(C(=O)OC)c(=O)[nH]1` registered a melting point of 126 to 128 °C.

For `Cc1ccc(S(=O)(=O)Oc2ccc(S(=O)(=O)c3c(C(C)C)cn4ccccc34)cc2)cc1`, the melting point was 180 to 183 °C.

`COP(=O)(OC)[C@H](C)NC(=O)[C@H](C)NC(=O)[C@H](C)NC(=O)OCc1ccccc1` had a melting point of 149 to 151 °C.

As for `O=C1CN(c2nccc(Oc3ccc(NC(=O)c4cc(F)cc(N5CCCCC5)c4)c4ccccc34)n2)CCN1`, the melting point is 140 to 142 °C.

In the case of `C[C@@H]1N=C(c2ccccc2)c2cc(C#CCCCC(=O)NO)ccc2N(C)C1=O`, the melting point lay in the range of 101 to 103 °C.

Consider `COCCOCCC1CCCCCc2c1oc(=O)c(C(c1ccccc1)C1CC1)c2O` (centres undefined), for which the melting point is 129 to 133 °C.

In the case of `O=C(Nc1ccc(-n2nc(C(F)(F)F)cc2C(F)(F)F)cc1)c1cc(F)c(Cl)cc1F`, the melting point was in the range of 160 to 162 °C.
